From US20150038707A1, “PROCESS FOR MAKING CGRP RECEPTOR ANTAGONISTS” (Merck Sharp & Dohme Corp., priority 2012, published 2015)

Legend:
[1] = system: Ae. aegypti Thai strain (pyrethroid tolerant); test: Toxicity assay on treated netting (Example 7), Thai strain; type: in vivo
Description: (§1) Several compounds were tested to determine their toxic effect on Ae. aegypti mosquitoes. Three mosquito strains were tested—Houston which is pyrethroid susceptible, That which is pyrethroid tolerant and Isla Mujer which is metabolically pyrethroid resistant.
(§2) The toxicity assay involved a single chamber to which treated netting was added. Twenty (20) mosquitoes were transferred to the chamber. After 1 hour, the number of knocked down mosquitoes was recorded and all mosquitoes were transferred to holding cartoons. The mosquitoes were given a 10% sucrose-soaked cotton ball and returned to the insectary. Mortaility was measured after 24 hours. A control assay using acetone-treated netting was used. Six replicates were performed at each treatment concentration.

[2] = system: Ae. aegypti Isla mujeres strain (metabolically pyrethroid resistant); test: Toxicity assay on treated netting (Example 7), Isla mujeres strain; type: in vivo
Description: as §1, §2

[3] = system: Ae. aegypti Houston strain (pyrethroid susceptible); test: Toxicity assay on treated netting (Example 7), Houston strain; type: in vivo
Description: as §1, §2

Susceptible An. Gambiae = test: Bottle toxicity assay (Example 8), susceptible mosquitoes; type: in vivo, Anopheles gambiae; conditions: Strain Tested F123
Description: (§3) Several compounds were tested to determine their toxic effect on knockdown resistant Anopheles gambiae mosquitoes and susceptible mosquitoes. Acetone and different amounts of pesticides were added to 250 ml bottles. In one bottle, only acetone was added as a control. The bottles were rotated in all directions while uncapped until all acetone was evaporated and the insecticide was coated onto the inside surfaces of the bottle. A number of knockdown resistant Anopheles gambiae mosquitoes were added to the bottle. The number of dead mosquitoes was recorded at 1 hour and 24 hours.

KDR Resisant An. Gambiae = test: Bottle toxicity assay (Example 8), knockdown resistant mosquitoes; type: in vivo, Anopheles gambiae; conditions: for KDR Resisant An. Gambiae (% dead (SE)): Strain Tested F123; for effectiveness against knockdown resistant strains: summary of Table 3
Description: as §3

[4] = system: Ae. Aegypti strains Houston, That and Isla Mujer; test: Spatial repellency on metabolically resistant mosquitoes (Example 6); type: in vivo
Description: (§4) The four compounds of formula I described in Example 2 were tested for spatial repellency (directed movement away from the chemical source without the insect making physical contact with the treated surface) at low doses on female Aedes aegypti (Thailand strain) mosquitoes. The spatial repellency response was determined by use of the spatial repellency assay disclosed by Grieco et al. in “A New Classification System for the Actions of IRS Chemicals Traditionally Used for Malaria Control” in Plos One, Issue 8 (2007) (available at www.plosone.org) which is incorporated herein by reference for all relevant and consistent purposes. The assay used was a cylindrical assembly that included a treatment chamber at one end and a control chamber at the other end. The treatment chamber included a netting strip (nylon organdy) that was treated with the insecticide of interest at the relevant dose. The treatment chamber and control chamber were connected by a clear cylinder and were separated from the clear cylinder by butterfly valves. Twenty (20) mosquitoes were introduced into the clear central chamber and the butterfly valves were opened after 30 seconds. After 10 minutes, the valves were closed and the number of mosquitoes in each chamber was counted.
(§5) The spatial repellency protocol of Example 3 was used to determine spatial repellency against mosquitoes (Ae. Aegypti) that had acquired metabolic resistance against pyrethroids. DDT and transfluthrin were also tested. Three mosquito strains were tested—Houston which is pyrethroid susceptible, That which is pyrethroid tolerant and Isla Mujer which is metabolically pyrethroid resistant.

[5] = system: Ae. Aegypti, That strain (pyrethroid tolerant); test: Contact irritancy on pyrethroid tolerant mosquitoes (Example 5); type: in vivo
Description: (§6) Four compounds of formula (I) were tested for contact irritancy (i.e., movement away from the source after physical contact) at low doses on female Aedes aegypti (Thailand strain) mosquitoes. The contact irritant response was determined by use of the contact irritant assay disclosed by Grieco et al. in “A New Classification System for the Actions of IRS Chemicals Traditionally Used for Malaria Control,” Plos One, Issue 8 (2007) (available at www.plosone.org). The assay used was a cylindrical assembly that included a metal treatment end to which 10 mosquitoes were introduced and a clear receiving chamber. The treatment end included a netting strip (nylon organdy) that was treated with the insecticide of interest at the relevant dose. A butterfly valve separated the treatment end from the remainder of the assembly.
(§7) Each composition was applied to the netting strip at a varied dose via a 1.5 ml acetone solution. Four (4) treatment concentrations were used—0.0025 nmol/cm^2, 0.025 nmol/cm^2, 0.25 nmol/cm^2 and 2.5 nmol/cm^2. Netting was allowed to dry for 15 minutes prior to placement in the cylinder. Control assays were performed with netting treated with acetone only.
(§8) For each run, 10 mosquitoes were transferred into the treatment end of the assembly and, after 30 seconds, the butterfly valve was opened. The valve was closed after 10 minutes and the number of mosquitoes in the clear end (i.e., the number of escaped mosquitoes) was tested.
as §5, with “contact irritancy” for “spatial repellency”, “2” for “3”, “Alphacypermethrin” for “DDT”

[6] = system: female Aedes aegypti (Thailand strain) mosquitoes; test: Contact irritancy and spatial repellency screening (Example 4); type: in vivo; conditions: Dosage 25 nmol/cm^2; mapped with 3000 other compounds
Description: as §6, §4
Dosage was 25 nmol/cm^2. Several known compounds were also mapped for comparison—alphacypermethrin, cypermethrin, propoxur, bendiocarb, permethrin, SS220, DDT, deet and chlorpyrifos.

[7] = system: female Aedes aegypti (Thailand strain) mosquitoes; test: Contact irritancy assay on mosquitoes (Example 2); type: in vivo; conditions: netting treated at 0.0025-2.5 nmol/cm^2
Description: as §6, §7, §8

[8] = Dose 0.25 nm/cm^2, Time 24 hours
[9] = Dose 2.5 nm/cm^2, Time 24 hours
[10] = Dose 0.25 μg/bottle, Time 1 hour
[11] = Dose 0.25 μg/bottle, Time 24 hours
[12] = Dose 2.5 μg/bottle, Time 1 hour
[13] = Dose 2.5 μg/bottle, Time 24 hours
[14] = Dose 0.0025 μg/bottle, Time 1 hour
[15] = Dose 0.0025 μg/bottle, Time 24 hours
[16] = Dose 0.025 μg/bottle, Time 1 hour
[17] = Dose 0.025 μg/bottle, Time 24 hours
[18] = Dose 0.025 nm/cm^2, Time 1 hour
[19] = Dose 0.025 nm/cm^2, Time 24 hours

Structure (SMILES)	Thai (% dead (SE)) ([1]; Dose 0.25 nm/cm^2, Time 1 hour) [%]	Thai (% dead (SE)) [1, 8] [%]	Thai (% dead (SE)) ([1]; Dose 2.5 nm/cm^2, Time 1 hour) [%]	Thai (% dead (SE)) [1, 9] [%]	Isla mujeres (% dead (SE)) ([2]; Dose 0.25 nm/cm^2, Time 1 hour) [%]	Isla mujeres (% dead (SE)) [2, 8] [%]	Isla mujeres (% dead (SE)) ([2]; Dose 2.5 nm/cm^2, Time 1 hour) [%]	Isla mujeres (% dead (SE)) [2, 9] [%]	Houston (% dead (SE)) ([3]; Dose 0.25 nm/cm^2, Time 1 hour) [%]	Houston (% dead (SE)) [3, 8] [%]	Houston (% dead (SE)) ([3]; Dose 2.5 nm/cm^2, Time 1 hour) [%]	Houston (% dead (SE)) [3, 9] [%]	Susceptible An. Gambiae (% dead (SE)) (Susceptible An. Gambiae; [10]) [%]	Susceptible An. Gambiae (% dead (SE)) (Susceptible An. Gambiae; [11]) [%]	Susceptible An. Gambiae (% dead (SE)) (Susceptible An. Gambiae; [12]) [%]	Susceptible An. Gambiae (% dead (SE)) (Susceptible An. Gambiae; [13]) [%]	KDR Resisant An. Gambiae (% dead (SE)) (KDR Resisant An. Gambiae; [10]) [%]	KDR Resisant An. Gambiae (% dead (SE)) (KDR Resisant An. Gambiae; [11]) [%]	KDR Resisant An. Gambiae (% dead (SE)) (KDR Resisant An. Gambiae; [12]) [%]	KDR Resisant An. Gambiae (% dead (SE)) (KDR Resisant An. Gambiae; [13]) [%]	also measured
CC1(C)C(C=C(Cl)Cl)C1C(=O)OC(C#N)c1cccc(Oc2ccccc2)c1 (stereo not drawn) [Alpha-cypermethrin, alpha cypermethrin, reference compound]	100	83.9	100	100	96.66	41.06	100	100	100	100	100	100									
CC1(C)C(C=C(Cl)Cl)C1C(=O)OCc1cccc(Oc2ccccc2)c1 (stereo not drawn) [Permethrin, permethrin, reference compound]					87.49	14.68	100	100	100	100	100	100	100	100	100	100	0	24	25	78	effectiveness against knockdown resistant strains (KDR Resisant An. Gambiae): less effective
C/C=C/C1C(C(=O)OCc2c(F)c(F)c(COC)c(F)c2F)C1(C)C (stereo in doubt) [Metafluthrin, metafluthrin, reference compound]	100	100	100	100	100	77.27	100	100	100	100	100	100	100	100	100	100	100	100	100	100	Susceptible An. Gambiae (% dead (SE)) (Susceptible An. Gambiae; [14]): 100%; Susceptible An. Gambiae (% dead (SE)) (Susceptible An. Gambiae; [15]): 86%; Susceptible An. Gambiae (% dead (SE)) (Susceptible An. Gambiae; [16]): 100%; Susceptible An. Gambiae (% dead (SE)) (Susceptible An. Gambiae; [17]): 100%; KDR Resisant An. Gambiae (% dead (SE)) (KDR Resisant An. Gambiae; [14]): 10%; KDR Resisant An. Gambiae (% dead (SE)) (KDR Resisant An. Gambiae; [15]): 25%; KDR Resisant An. Gambiae (% dead (SE)) (KDR Resisant An. Gambiae; [16]): 47%; KDR Resisant An. Gambiae (% dead (SE)) (KDR Resisant An. Gambiae; [17]): 86%; effectiveness against knockdown resistant strains (KDR Resisant An. Gambiae): less effective; Thai (% dead (SE)) [1, 18]: 100%; Thai (% dead (SE)) [1, 19]: 89.2%; Isla mujeres (% dead (SE)) [2, 18]: 56.3%; Isla mujeres (% dead (SE)) [2, 19]: 21.89%; Houston (% dead (SE)) [3, 18]: 100%; Houston (% dead (SE)) [3, 19]: 100%
CC(C)c1cccc(COC(=O)C2C(C=C(Cl)C(F)(F)F)C2(C)C)c1F (stereo not drawn) [Compound 1415]																					spatial repellency, all strains (FIG. 5) [4]: spatial repellants for all strains; contact irritancy, tolerant strain (FIG. 4) [5]: contact irritants for tolerant strains; contact irritancy and spatial repellency relative to screened compounds (FIG. 3) [6]: superior contact irritancy and spatial repellency relative to most screened compounds; contact irritancy, dose compared with alphacypermethrin (FIG. 1) [7]: showed contact irritancy at a lower dose than alphacypermethrin; contact irritancy (FIG. 1) ([7]; 10 minutes): showed contact irritancy at relatively low doses
CC1(C)[C@H](C=C(Cl)Cl)[C@H]1C(=O)OCc1c(F)c(F)cc(F)c1F [Transfluthrin, transfluthrin, reference compound]	100	100	100	100	100	100	100	100	100	100	100	100									Thai (% dead (SE)) [1, 18]: 100%; Thai (% dead (SE)) [1, 19]: 91.7%; Isla mujeres (% dead (SE)) [2, 18]: 100%; Isla mujeres (% dead (SE)) [2, 19]: 1.6%; Houston (% dead (SE)) [3, 18]: 100%; Houston (% dead (SE)) [3, 19]: 100%
